Experimental data as given in US12116344B2, “Crystalline forms of a pharmaceutical compound” (Azafaros B.V., priority 2020, dated 2024).

Tests used:
[1] = Stability of the crystalline form (transition of Form 2 into Form 3); type: physicochemical; conditions: Form 2 transitions into Form 3 above around 30° C. in about 1-5 min, or in solvent for more than 5 min at around 25° C.; listed as Form 3
Protocol: Alternatively, Form 2 transitioned into Form 3 upon equilibration in solvent (e.g. acetone) for more than 5 min at around 25° C.

[2] = Stability of the test item in vehicle (acidified water); type: physicochemical; conditions: for Stability in the vehicle: 0.01 to 2 mg/mL
[3] = Body weight of NPC mice, PND 11 to Week 9; type: in vivo
Protocol: Body weights and health status were recorded daily for the first week and later once a week.
24 NPC1 (−/−) mice (groups D to I) were treated per oral gavage (10 mL/kg) with AZ-3102-00 from post-natal day 11 (P11) to post-natal-day 70 (P70). Dosing will start at 1.5 mg/kg from P11 to P25, followed by 3 mg/kg from P26 to P70. Control mice included 6 NPC1 (−/−) and 4 NPC (+/−) mice treated with vehicle and 4 NPC (+/+) mice received AZ-3102-00 (groups A to C).
Graph represents the progress of body weights [g] per group measured daily during the first treatment week and weekly thereafter.

Calbindin-D28k = experiment: Brain immunofluorescence of Calbindin-D28k (Purkinje cell marker); type: in vivo, mice
Protocol: Mouse right hemi-brains were fixed by immersion in freshly prepared 4% paraformaldehyde in PB (pH 7.4) for two hours at room temperature. Afterwards, hemispheres were transferred to 15% sucrose/PBS and stored at 4° C. until sunk to ensure cryoprotection. Tissue blocks were then trimmed as needed, transferred to cryomolds, embedded in OCT medium, frozen in dry ice-cooled isopentane and stored in an ultra-deep freezer (set at −80° C. target temperature).
Five consecutive cryosections were sagittally cut at 10 μm thickness on a Leica cryotome. The next 25 sections per level were discarded. This collection scheme was repeated for 12 levels and may have been modified to collect from the correct levels, e.g., if brains were smaller due to young age or genotype. In total 12×5=60 sections were collected. Sectioning levels were chosen according to the brain atlas of Paxinos and Franklin (“The Mouse Brain in Stereotaxic Coordinates”, 2nd edition, 2001). Collection of sections started at a level ˜0.2 mm lateral from midline and extend through the hemisphere to ensure systematic random sampling through the target regions (FIGS. 10 and 15). Sections were stored at −20° C. Almost the entire brain was sectioned, so the residual tissue block was disposed when all sections were collected.
For each incubation, a uniform systematic random set of five sections per mouse was selected (one section each from levels 2, 4, 6, 8, 10); for information on systematic random sampling follow this link: http://www.stereoloqy.info/sampling/ […]
Whole slide scans of the stained sections were recorded on a Zeiss automatic microscope AxioScan Z1 with high aperture lenses, equipped with a Zeiss Axiocam 506 mono and a Hitachi 3CCD HV-F202SCL camera and Zeiss ZEN 2.3 software.
Image analysis was done with Image Pro 10 (Media Cybernetics). […] Afterwards, immunofluorescence was quantitatively evaluated within the identified areas.
For quantification we used background correction if necessary and detect immunoreactive objects by adequate thresholding and morphological filtering (size, shape). […]

[4] = molecular target: T1, non-lysosomal glucosylcerebrosidase (GbA2) (Homo sapiens, UniProt Q9HCG7); conditions: stated in words only, no test described; cited from earlier work
T1 sequence (Q9HCG7 1-927): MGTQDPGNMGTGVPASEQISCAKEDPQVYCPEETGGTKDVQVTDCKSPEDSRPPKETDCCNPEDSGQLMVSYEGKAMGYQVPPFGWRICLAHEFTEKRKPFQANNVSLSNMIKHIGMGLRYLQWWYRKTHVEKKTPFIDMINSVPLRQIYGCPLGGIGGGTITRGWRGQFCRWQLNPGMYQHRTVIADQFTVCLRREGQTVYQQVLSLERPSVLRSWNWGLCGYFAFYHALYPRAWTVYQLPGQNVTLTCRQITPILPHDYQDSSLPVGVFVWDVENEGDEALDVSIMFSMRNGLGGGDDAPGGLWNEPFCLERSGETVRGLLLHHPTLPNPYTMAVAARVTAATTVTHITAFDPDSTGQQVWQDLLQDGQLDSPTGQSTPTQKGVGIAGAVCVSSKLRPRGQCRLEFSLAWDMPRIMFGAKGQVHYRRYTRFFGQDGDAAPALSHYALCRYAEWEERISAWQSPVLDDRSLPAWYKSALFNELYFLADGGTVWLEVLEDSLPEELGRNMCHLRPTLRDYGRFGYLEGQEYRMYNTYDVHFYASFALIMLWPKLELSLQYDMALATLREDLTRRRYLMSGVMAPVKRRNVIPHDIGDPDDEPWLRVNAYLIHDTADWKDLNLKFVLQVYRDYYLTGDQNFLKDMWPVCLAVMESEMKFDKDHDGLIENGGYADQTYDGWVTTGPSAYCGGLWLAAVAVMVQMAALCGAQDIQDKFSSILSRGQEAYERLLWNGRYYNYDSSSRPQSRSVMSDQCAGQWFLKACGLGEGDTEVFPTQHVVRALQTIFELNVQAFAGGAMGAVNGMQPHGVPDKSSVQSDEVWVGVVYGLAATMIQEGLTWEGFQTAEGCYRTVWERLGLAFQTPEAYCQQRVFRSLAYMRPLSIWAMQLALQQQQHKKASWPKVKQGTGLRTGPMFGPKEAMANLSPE

## OC[C@H]1[C@@H](O)[C@H](O)[C@@H](O)CN1CCCCCOCc1ccc(-c2ccccc2)c(F)c1 [AZ-3102]
[1]
  Stability of the crystalline form: better stability
[2]; freezer (≤−15° C.)
  Stability in the vehicle: at least 3 weeks
[2]; refrigerated (2-8° C.)
  Stability in the vehicle: at least 8 days
[2]; room temperature protected from light
  Stability in the vehicle: at least 24 hours
[2]; under nitrogen at room temperature protected from light
  Stability in vehicle: light for at least 24 h, stored under nitrogen
[2]; under nitrogen frozen in a freezer (≤−15° C.)
  Stability in vehicle: for at least 21 days (3 weeks).
[3]; both genders, daily oral gavage P11-P70, PND 11 to Week 9
  Body weight gain of treated NPC (−/−) mice versus untreated NPC (−/−) mice: gained more than the NPC (−/−) untreated animals
[3]; daily oral gavage P11-P70, 1.5 mg/kg (P11-P25) then 3 mg/kg (P26-P70)
  General health as indicated by average percent body weight gains: not impeded
Calbindin-D28k; NPC (−/−) mice, treated versus vehicle, all readouts
  Calbindin-D28k immunofluorescence in the cerebellum: significantly increased
Calbindin-D28k; NPC mice, group comparison
  Calbindin-D28k immunofluorescence in the hippocampus: no significant group differences
Calbindin-D28k; treated compared to vehicle treated NPC (−/−) mice, calbindin-D28k marker
  Cerebellar Purkinje cell loss: significantly limited
[4]
  Potency as inhibitor of GbA2: highly potent (nM)
